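Protocol summary: plate cells (96-well), add compound at 5 concentrations, incubate 48 h, interpolate endpoints linearly. The concentration for 50% growth inhibition is given as GI50. TGI denotes the concentration required for complete inhibition of growth.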
How the values were obtained:
Assay in all cases: NCI-60 cell line screen, 48 h
[1] = tested on: MOLT-4 leukemia
[2] = tested on: SF-539 CNS
[3] = tested on: RXF 393 renal
[4] = tested on: EKVX NSCLC
[5] = tested on: LOX IMVI melanoma
[6] = tested on: HL-60(TB) leukemia
[7] = tested on: SNB-19 CNS
[8] = tested on: HCT-15 colon
[9] = tested on: ACHN renal

Oc1ccc(Cl)cc1C1=NC(/N=C\c2ccccc2)=NC(c2ccccc2)C1 (centres undefined)
TGI [1]: > 100 µM
TGI [2]: > 100 µM
TGI [3]: > 100 µM
TGI [4]: > 100 µM

COc1ccc(N2NC(c3ccccc3)(c3ccccc3)C(C)C2=O)cc1 (centres undefined)
TGI [1]: > 100 µM
TGI [5]: > 100 µM
TGI [2]: > 100 µM
TGI [3]: > 100 µM
TGI [4]: > 100 µM
TGI [6]: > 100 µM
TGI [7]: > 100 µM
TGI [8]: > 100 µM
TGI [9]: > 100 µM

CCCCCCCCCCCCCC(=O)N(CCCCCCCCC)CC(O)C(O)C(OC1OC(CO)C(O)C(O)C1O)C(O)CO (centres undefined)
TGI [1]: 44.9 µM
TGI [5]: 39.6 µM
TGI [2]: 51.3 µM
TGI [3]: 54.9 µM
TGI [4]: 34.5 µM
TGI [6]: 48.7 µM
TGI [7]: 44 µM
TGI [8]: 49.7 µM
TGI [9]: 30.5 µM

CCOC(=O)[C@@H]1ON2OC(OC3CCCC3(c3ccccc3)c3ccccc3)C(OC(C)=O)[C@H]3OC(=O)[C@@H]1C32 (some centres undefined)
TGI [1]: > 100 µM
TGI [5]: 60.3 µM
TGI [2]: > 100 µM
TGI [3]: 84.2 µM
TGI [4]: > 100 µM
TGI [6]: > 100 µM
TGI [7]: > 100 µM
TGI [8]: > 100 µM
TGI [9]: 73.2 µM

C=C(C)CNC(=S)N(N)c1ccc2ccccc2c1
TGI [1]: > 100 µM
TGI [5]: > 100 µM
TGI [2]: > 100 µM
TGI [3]: > 100 µM
TGI [4]: 88.9 µM
TGI [6]: > 100 µM
TGI [7]: > 100 µM
TGI [8]: 28.7 µM
TGI [9]: > 100 µM

Oc1cc(Br)cc2cc(Cl)cnc12
TGI [1]: 7.49 µM
TGI [5]: > 26.5 µM
TGI [2]: > 100 µM
TGI [3]: 15.2 µM
TGI [4]: 45.2 µM
TGI [6]: 2.75 µM
TGI [7]: > 100 µM
TGI [8]: > 100 µM
TGI [9]: > 68 µM

Brc1ccc2c(-c3csc(-c4c[nH]c5ccccc45)n3)c[nH]c2c1
GI50 [1]: 19.9 µM
TGI [1]: 36.3 µM
TGI [5]: 29.6 µM
TGI [2]: 30.8 µM
TGI [3]: 38.8 µM
TGI [4]: 36.1 µM
TGI [7]: 31.7 µM
GI50 [8]: 15.2 µM
TGI [8]: 28.5 µM
TGI [9]: 32.1 µM

Cn1c(O)c(C=Nc2ccccc2Cl)c(=O)n(C)c1=O
TGI [1]: 61.5 µM
TGI [5]: 32.2 µM
TGI [2]: 60.7 µM
TGI [3]: 45.4 µM
TGI [4]: > 100 µM
TGI [7]: 78.4 µM
TGI [8]: 41.4 µM
TGI [9]: 92.2 µM

COc1cc(Br)c(CC2C3=C(CCN2C(=O)C2CCC2)CC(=O)CC3)cc1O (centres undefined)
TGI [1]: > 100 µM
TGI [5]: > 100 µM
TGI [2]: > 100 µM
TGI [4]: > 100 µM
TGI [6]: 36.9 µM
TGI [7]: > 100 µM
TGI [8]: 47.5 µM
TGI [9]: 86.9 µM

O=C1C(=Cc2ccc(Cl)c(Cl)c2)C([O-])=C([P+](c2ccccc2)(c2ccccc2)c2ccccc2)C([O-])=C1[P+](c1ccccc1)(c1ccccc1)c1ccccc1
TGI [1]: 3.84 µM
TGI [5]: 2.67 µM
TGI [2]: 5.17 µM
TGI [3]: 3.35 µM
TGI [4]: 6.64 µM
TGI [6]: 3.18 µM
TGI [7]: 6.35 µM
TGI [8]: 13.8 µM
TGI [9]: 9.26 µM

CNc1ncnc2c1cnn2Cc1cn(COCC(O)CO)nn1 (centres undefined)
TGI [5]: > 100 µM
TGI [2]: > 100 µM
TGI [4]: > 100 µM
TGI [6]: > 100 µM
TGI [7]: > 100 µM
TGI [8]: > 100 µM
TGI [9]: > 100 µM

Cc1ccc([N+](=O)[O-])c2c(NCC(O)CO)ccnc12 (centres undefined)
TGI [1]: > 100 µM
TGI [5]: > 100 µM
TGI [2]: 48.6 µM
TGI [3]: > 100 µM
TGI [4]: > 100 µM
TGI [6]: > 100 µM
TGI [7]: > 100 µM
TGI [8]: > 100 µM
TGI [9]: > 100 µM

CN(C)CCCNCc1cccc2ccccc12
TGI [1]: > 100 µM
TGI [5]: > 100 µM
TGI [2]: > 100 µM
TGI [3]: > 100 µM
TGI [4]: > 100 µM
TGI [6]: > 100 µM
TGI [7]: > 100 µM
TGI [8]: > 100 µM
TGI [9]: > 100 µM

O=c1c2ccccc2nc(N/N=C/c2ccccc2O)n1-c1ccccc1
TGI [5]: > 100 µM
TGI [2]: > 100 µM
TGI [3]: > 100 µM
TGI [6]: 8.07 µM
TGI [7]: > 100 µM
TGI [8]: > 100 µM
TGI [9]: > 100 µM

O=c1ccc2ccc(O)cc2o1
TGI [1]: > 100 µM
TGI [5]: > 100 µM
TGI [2]: > 100 µM
TGI [3]: > 100 µM
TGI [4]: > 100 µM
TGI [6]: > 100 µM
TGI [7]: > 100 µM
TGI [8]: > 100 µM
TGI [9]: > 100 µM

Cc1nc2ccccc2c(/C=C/c2ccc(Cl)cc2)c1C(=O)/C=C/c1ccccc1
GI50 [1]: 0.884 µM
TGI [1]: 4.88 µM
GI50 [5]: 1.64 µM
TGI [5]: 3.03 µM
GI50 [2]: 1.7 µM
TGI [2]: 3.11 µM
GI50 [3]: 1.6 µM
TGI [3]: 2.98 µM
GI50 [6]: 2.01 µM
TGI [6]: 4.58 µM
GI50 [8]: 1.36 µM
TGI [8]: 4.03 µM
GI50 [9]: 1.53 µM
TGI [9]: 2.86 µM

C=CC(C)(C)C(=C)C(=O)Nc1ccccc1I
TGI [5]: > 100 µM
TGI [3]: > 100 µM
TGI [4]: > 100 µM
TGI [7]: > 100 µM
TGI [8]: > 100 µM
TGI [9]: > 100 µM

CCOC(=O)C(NC(=O)OC(C)(C)C)C(=O)OCC
TGI [1]: > 100 µM
TGI [3]: > 100 µM
TGI [4]: > 100 µM
TGI [7]: > 100 µM
TGI [8]: > 100 µM
TGI [9]: > 100 µM

CN(Cc1cc(Cl)c(Cl)cc1NC(=O)CN)[C@H]1CCCC[C@@H]1N1CCCC1
TGI [1]: > 100 µM
TGI [5]: 32.3 µM
TGI [3]: > 100 µM
TGI [4]: > 100 µM
TGI [6]: > 100 µM
TGI [7]: > 100 µM
TGI [9]: > 100 µM

CCOC(=O)N1CCC(=C2c3ccc(Cl)cc3CCc3cccnc32)CC1
TGI [1]: 33.3 µM
TGI [5]: 74.6 µM
TGI [3]: 22.7 µM
TGI [4]: 28.1 µM
TGI [6]: 22.9 µM
TGI [8]: 23.4 µM
TGI [9]: 15.8 µM

Cc1sc2nc3n(c(=O)c2c1C)N=CN(c1ccc(F)cc1)C3
TGI [1]: > 100 µM
TGI [5]: > 100 µM
TGI [3]: > 100 µM
TGI [4]: > 100 µM
TGI [7]: > 100 µM
TGI [8]: > 100 µM
TGI [9]: > 100 µM

O=C(CSc1nc2ccccc2c(=O)n1-c1ccccc1)N=Nc1c(O)[nH]c2ccc(F)cc12
TGI [1]: 3.43 µM
TGI [5]: > 100 µM
TGI [2]: 9.21 µM
TGI [3]: 4.09 µM
TGI [4]: 5.57 µM
TGI [6]: 3.96 µM
TGI [7]: 67.5 µM

CC(=O)OC1COC(Nc2nc(N)n(C)c(=O)c2N=O)C(OC(C)=O)C1OC(C)=O (centres undefined)
TGI [1]: > 10 µM
TGI [5]: > 10 µM
TGI [2]: > 10 µM
TGI [3]: > 10 µM
TGI [4]: > 10 µM
TGI [6]: > 10 µM
TGI [7]: > 10 µM
TGI [9]: > 10 µM

COc1ccc2nc3cc(Cl)ccc3c(NCCNc3c4ccc(Cl)cc4nc4ccc(OC)cc34)c2c1
GI50 [3]: 1.55 µM
TGI [3]: 2.92 µM
GI50 [9]: 1.6 µM
TGI [9]: 3.11 µM

O=C1CC2CCC(C1)S2=O (centres undefined)
TGI [1]: > 100 µM
TGI [5]: > 100 µM
TGI [2]: > 100 µM
TGI [3]: > 100 µM
TGI [4]: > 100 µM
TGI [6]: > 100 µM
TGI [7]: > 100 µM
TGI [8]: > 100 µM
